One data set deals with T1, KDR (VEGFR2) (Homo sapiens, UniProt P35968).
T1 construct: expressed in transfected cells; host or cells: porcine aorta endothelial (PAE)-KDR cells
Nature of the data set: KDR (VEGFR2) phosphorylation in PAE-KDR cells assay. Format: cell-based. The settings on record: PAE cells overexpressing human KDR, VEGF stimulated; read-out: PAE KDR autophos IC50 (nM) AVG. The method, then: KDR (VEGFR2) Phosphorylation in PAE-KDR Cells Assay
This assay determines the ability of a test compound to inhibit the autophosphorylation of KDR in porcine aorta endothelial (PAE)-KDR cells. PAE cells that overexpress human KDR were used in this assay. The cells were cultured in Ham's F12 media supplemented with 10% fetal bovine serum (FBS) and 400 ug/mL G418. Thirty thousands cells were seeded into each well of a 96-well plate in 75 μL of growth media and allowed to attach for 6 hours at 37° C. Cells were then exposed to the starvation media (Ham's F12 media supplemented with 0.1% FBS) for 16 hours. After the starvation period was over, 10 μL of test agent in 5% DMSO in starvation media were added to the test wells and 10 μL of the vehicle (5% DMSO in starvation media) were added into the control wells. The final DMSO concentration in each well was 0.5%. Plates were incubated at 37° C. for 1 hour and the cells were then stimulated with 500 ng/ml VEGF (commercially available from R & D System) in the presence of 2 mM Na3VO4 for 8 minutes. The cells were washed once with 1 mm Na3VO4 in HBSS and lysed by adding 50 μL per well of lysis buffer. One hundred μL of dilution buffer were then added to each well and the diluted cell lysate was transferred to a 96-well goat ant-rabbit coated plate (commercially available from Pierce) which was pre-coated with Rabbit anti Human Anti-flk-1 C-20 antibody (commercially available from Santa Cruz). The plates were incubated at room temperature for 2 hours and washed seven times with 1% Tween 20 in PBS. HRP-PY20 (commercially available from Santa Cruz) was diluted and added to the plate for a 30-minute incubation. Plates were then washed again and TMB peroxidase substrate (commercially available from Kirkegaard & Perry) was added for a 10-minute incubation. One hundred μL of 0.09 N H2SO4 was added to each well of the 96-well plates to stop the reaction. Phosphorylation status was assessed by spectrophotometer reading at 450 nm. IC50 values were calculated by curve fitting using a four-parameter analysis.

The test system of the next data set is Huvec. Briefly: bFGF Huvec proliferation. The settings on record: Homo sapiens, HUVEC. Format: cell-based, human.
The nature of the next data set: Mouse PK assay. Format: in vivo. The settings on record: 50 mg/kg, B6 female mice, plasma; for AUC / Cmax: mouse, po. The method, then: The pharmacokinetics (e.g., absorption and elimination) of drugs in mice were analyzed using the following experiment. Test compounds were formulated as a suspension in a 30:70 (PEG 400:acidified H2O) vehicle. This solution was administered orally (p.o.) and intraperitoneally (i.p.) at 50 mg/kg to two distinct groups (n=4) of B6 female mice. Blood samples were collected via an orbital bleed at time points: 0 hour (pre-dose), 0.5 hr, 1.0 hr, 2.0 hr, and 4.0 hr post dose. Plasma was obtained from each sample by centrifugation at 2500 rpm for 5 min. Test compound was extracted from the plasma by an organic protein precipitation method. For each time bleed, 50 μL of plasma was combined with 1.0 mL of acetonitrile, vortexed for 2 min. and then spun at 4000 rpm for 15 min. to precipitate the protein and extract out the test compound. Next, the acetonitrile supernatant (the extract containing test compound) was poured into new test tubes and evaporated on a hot plate (25° C.) under a steam of N2 gas. To each tube containing the dried test compound extract, 125 μL of mobile phase (60:40, 0.025 M NH4H2PO4+2.5 mL/L TEA:acetonitrile) was added. The test compound was resuspended in the mobile phase by vortexing and more protein was removed by centrifugation at 4000 rpm for 5 min. Each sample was poured into an HPLC vial for test compound analysis on an Hewlett Packard 1100 series HPLC with UV detection. From each sample, 95 μL was injected onto a Phenomenex-Prodigy reverse phase C-18, 150×3.2 mm column and eluted with a 45–50% acetonitrile gradient run over 10 min. Test-compound plasma concentrations (μg/mL) were determined by a comparison to standard curve (peak area vs. conc. μg/mL) using known concentrations of test compound extracted from plasma samples in the manner described above. Along with the standards and unknowns, three groups (n=4) of quality controls (0.25 μg/mL, 1.5 μg/mL, and 7.5 μg/mL) were run to insure the consistency of the analysis. […] The quantitated test samples were plotted for visual display using Kalidagraph software and their pharmacokinetic parameters were determined using WIN NONLIN software.

T1 sequence (P35968 20-1356): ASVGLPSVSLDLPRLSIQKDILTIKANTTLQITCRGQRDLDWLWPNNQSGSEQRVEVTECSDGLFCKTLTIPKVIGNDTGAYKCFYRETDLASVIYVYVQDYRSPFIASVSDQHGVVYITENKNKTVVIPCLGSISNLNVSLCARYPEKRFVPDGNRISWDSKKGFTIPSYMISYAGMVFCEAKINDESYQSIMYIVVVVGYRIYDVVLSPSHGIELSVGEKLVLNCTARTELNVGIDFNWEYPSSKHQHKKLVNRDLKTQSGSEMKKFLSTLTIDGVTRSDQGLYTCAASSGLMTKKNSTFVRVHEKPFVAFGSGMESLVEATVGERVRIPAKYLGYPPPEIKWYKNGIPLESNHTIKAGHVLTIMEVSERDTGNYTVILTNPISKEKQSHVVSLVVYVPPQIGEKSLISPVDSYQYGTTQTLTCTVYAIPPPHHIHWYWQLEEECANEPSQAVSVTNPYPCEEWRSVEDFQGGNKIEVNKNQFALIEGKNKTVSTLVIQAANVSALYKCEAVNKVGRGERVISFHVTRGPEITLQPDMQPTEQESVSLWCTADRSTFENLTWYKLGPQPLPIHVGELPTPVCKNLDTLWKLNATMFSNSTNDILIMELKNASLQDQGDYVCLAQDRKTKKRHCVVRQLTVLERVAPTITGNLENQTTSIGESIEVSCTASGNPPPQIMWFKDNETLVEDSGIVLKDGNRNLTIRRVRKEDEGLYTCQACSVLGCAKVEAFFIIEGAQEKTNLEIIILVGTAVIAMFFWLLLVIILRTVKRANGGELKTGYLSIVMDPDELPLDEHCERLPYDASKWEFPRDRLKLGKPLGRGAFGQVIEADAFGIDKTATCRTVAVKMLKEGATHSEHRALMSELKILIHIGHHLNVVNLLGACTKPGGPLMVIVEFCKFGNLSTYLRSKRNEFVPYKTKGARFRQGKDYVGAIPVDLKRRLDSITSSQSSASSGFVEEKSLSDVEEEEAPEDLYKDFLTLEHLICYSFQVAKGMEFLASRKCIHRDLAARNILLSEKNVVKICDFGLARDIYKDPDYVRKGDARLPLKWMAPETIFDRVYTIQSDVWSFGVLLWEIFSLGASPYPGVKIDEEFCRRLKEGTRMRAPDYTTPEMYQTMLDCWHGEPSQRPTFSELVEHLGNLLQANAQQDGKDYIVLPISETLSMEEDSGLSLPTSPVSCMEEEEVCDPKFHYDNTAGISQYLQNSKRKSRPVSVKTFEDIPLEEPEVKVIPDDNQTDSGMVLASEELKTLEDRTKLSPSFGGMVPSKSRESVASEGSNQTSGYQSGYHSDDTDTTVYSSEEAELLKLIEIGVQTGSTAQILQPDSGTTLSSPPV

`CNC(=O)c1c(C)sc2cc(Oc3ccnc4cc(-c5nccn5C)sc34)ccc12` [Example 1, 2-methyl-6-(2-[1-methyl-1H-imidazol-2-yl]thieno[3,2-b]pyridin-7-yloxy)benzo[b]thiophene-3-carboxylic acid methylamide]: the IC50 at KDR (VEGFR2) is 0.31 nM. Further, the IC50 in the data set with Huvec came to 122 nM. Moreover, in the data set “Mouse PK assay”, the “mouse Cmin, po” value worked out at 2.793 µg/mL; the AUC was found to be 183 µg·h/mL; the Cmax was found to be 125 µg/mL.
On to `CNC(=O)c1c(C)sc2cc(Oc3ccnc4cc(C(=O)N5CCC[C@H]5COC)sc34)ccc12` [Example 2, 6-(2-[(S)-2-(methoxymethyl)pyrrolidine-1-carbonyl]thieno[3,2-b]pyridin-7-yloxy)-2-methylbenzo[b]thiophene-3-carboxylic acid methylamide], for which the figures for the IC50 on KDR (VEGFR2) and in the data set with Huvec were 1.8 nM and 3330 nM, respectively.
`CNC(=O)c1c(C)sc2cc(Oc3ccnc4cc(C(=O)N5CCC[C@H]5CO)sc34)ccc12` [Example 3]: the IC50 at KDR (VEGFR2) amounted to 0.9 nM. Moreover, in the data set on Huvec, half-maximal inhibition (IC50) required 942 nM. In “Mouse PK assay”, the “mouse Cmin, po” value was determined as 0.066 µg/mL; the AUC was 2.45 µg·h/mL; the Cmax is 0.956 µg/mL.
As for `CNC(=O)c1c(C)sc2cc(Oc3ccnc4cc(C(=O)N5CC[C@@H](OC)C5)sc34)ccc12` [Example 4, 6-(2-[(R)-3-methoxypyrrolidine-1-carbonyl]thieno[3,2-b]pyridin-7-yloxy)-2-methylbenzo[b]thiophene-3-carboxylic acid methylamide], the IC50 at KDR (VEGFR2) amounted to 0.47 nM. In the data set “Mouse PK assay”, the “mouse Cmin, po” value stood at 0.2 µg/mL; the AUC is 7.67 µg·h/mL; the Cmax stood at 2.34 µg/mL.
Turning to `CNC(=O)c1c(C)sc2cc(Oc3ccnc4cc(C(=O)N5CC[C@@H](O)C5)sc34)ccc12` [Example 6, 6-(2-[(R)-3-hydroxypyrrolidine-1-carbonyl]thieno[3,2-b]pyridin-7-yloxy)-2-methylbenzo[b]thiophene-3-carboxylic acid methylamide], in the data set with Huvec, the IC50 was determined as 145 nM. Further, in the data set “Mouse PK assay”, the “mouse Cmin, po” value was found to be 0.02 µg/mL; the AUC stood at 0.586 µg·h/mL; the Cmax is 0.355 µg/mL.
Regarding `CNC(=O)c1c(C)oc2cc(Oc3ccnc4cc(C(=O)N5CC[C@@H](OC)C5)sc34)ccc12` [Example 12, 6-(2-[3-methoxypyrrolidine-1-carbonyl]thieno[3,2-b]pyridin-7-yloxy)-2-methylbenzofuran-3-carboxylic acid methylamide], the IC50 at KDR (VEGFR2) is 0.14 nM. Besides, the IC50 with Huvec was found to be 20 nM. In addition, in the data set “Mouse PK assay”, the “mouse Cmin, po” value worked out at 0.27 µg/mL; the AUC was 12 µg·h/mL; the Cmax came out at 5.42 µg/mL.
The corresponding values for `CNC(=O)c1c(C)oc2cc(Oc3ccnc4cc(-c5nccn5C)sc34)ccc12` [Example 13] are 0.21 nM, 27 nM, 1.7 µg/mL, 63 µg·h/mL and 24.8 µg/mL.
For the compound `CNC(=O)c1c(C)n(C)c2cc(Oc3ccnc4cc(-c5nccn5C)sc34)ccc12` [Example 17, 1,2-dimethyl-6-(2-[1-methyl-1H-imidazol-2-yl]thieno[3,2-b]pyridin-7-yloxy)-1H-indole-3-carboxylic acid methylamide], the IC50 at KDR (VEGFR2) was 0.47 nM. This compound came in with an IC50 with Huvec of 847 nM. For the same compound, in “Mouse PK assay”, the “mouse Cmin, po” value is 2.334 µg/mL; the AUC worked out at 71.6 µg·h/mL; the Cmax was 28.8 µg/mL.
The corresponding values for `CNC(=O)c1c(C)n(C)c2cc(Oc3ccnc4cc(C(=O)N5CC[C@@H](OC)C5)sc34)ccc12` [Example 18, 1,2-dimethyl-6-(2-[3-methoxy-pyrrolidine-1-carbonyl]thieno[3,2-b]pyridin-7-yloxy)-1H-indole-3-carboxylic acid methylamide] are 0.62 nM, 1000 nM, 0.342 µg/mL, 8.72 µg·h/mL and 4.12 µg/mL.
The corresponding values for `CNC(=O)c1c(C)n(C)c2cc(Oc3ccnc4cc(C(=O)N5CC[C@@H](O)C5)sc34)ccc12` [Example 19, 1,2-dimethyl-6-(2-[3-hydroxy-pyrrolidine-1-carbonyl]thieno[3,2-b]pyridin-7-yloxy)-1H-indole-3-carboxylic acid methylamide] are 1.7 nM, 10000 nM, 0.004 µg/mL, 0.12 µg·h/mL and 0.051 µg/mL.
Take `Cc1c(C(=O)NC2CC2)c2ccc(Oc3ccnc4cc(-c5nccn5C)sc34)cc2n1C` [Example 20, 1,2-Dimethyl-6-[2-(1-methyl-1H-imidazol-2-yl)-thieno[3,2-b]pyridin-7-yloxy]-1H-indole-3-carboxylic acid cyclopropylamide]: the IC50 at KDR (VEGFR2) came out at 0.217 nM; in the data set on Huvec, 1900 nM.
In the case of `CCCNC(=O)c1c(C)n(C)c2cc(Oc3ccnc4cc(-c5nccn5C)sc34)ccc12` [Example 61, 1,2-Dimethyl-6-[2-(1-methyl-1H-imidazol-2-yl)thieno[3,2-b]pyridin-7-yloxy]-1H-indole-3-carboxylic acid propylamide], the IC50 on KDR (VEGFR2) is 0.4 nM; in the data set on Huvec, 4000 nM.
Consider `CCCCNC(=O)c1c(C)n(C)c2cc(Oc3ccnc4cc(-c5nccs5)sc34)ccc12` [Example 62, 1,2-Dimethyl-6-(2-thiazol-2-yl-thieno[3,2-b]pyridin-7-yloxy)-1H-indole-3-carboxylic acid butylamide], for which the IC50 is 0.24 nM at KDR (VEGFR2) and 619 nM in the data set with Huvec.

The record behind these values is patent US7045528B2, “Benzofused heterozryl amide derivatives of thienopyridines useful as therapeutic agents, pharmaceutical compositions including the same, and methods for their use” (Agouron Pharmaceuticals, Inc., priority 2002, dated 2006).
